Laboratory results reported in patent US9006238B2, “Pyrazolo pyridine derivatives as NADPH oxidase inhibitors” (Genkyotex SA, priority 2008, dated 2015).

Biological target: T1, NOX (Homo sapiens, UniProt P04839)
T1 construct: HL60 differentiation to the neutrophil phenotype was triggered by adding Me2SO; endogenous in cells; host or cells: HL-60 cells differentiated with DMSO (1.25% v/v, 6 days) to the neutrophil phenotype
T1 sequence (P04839 1-570): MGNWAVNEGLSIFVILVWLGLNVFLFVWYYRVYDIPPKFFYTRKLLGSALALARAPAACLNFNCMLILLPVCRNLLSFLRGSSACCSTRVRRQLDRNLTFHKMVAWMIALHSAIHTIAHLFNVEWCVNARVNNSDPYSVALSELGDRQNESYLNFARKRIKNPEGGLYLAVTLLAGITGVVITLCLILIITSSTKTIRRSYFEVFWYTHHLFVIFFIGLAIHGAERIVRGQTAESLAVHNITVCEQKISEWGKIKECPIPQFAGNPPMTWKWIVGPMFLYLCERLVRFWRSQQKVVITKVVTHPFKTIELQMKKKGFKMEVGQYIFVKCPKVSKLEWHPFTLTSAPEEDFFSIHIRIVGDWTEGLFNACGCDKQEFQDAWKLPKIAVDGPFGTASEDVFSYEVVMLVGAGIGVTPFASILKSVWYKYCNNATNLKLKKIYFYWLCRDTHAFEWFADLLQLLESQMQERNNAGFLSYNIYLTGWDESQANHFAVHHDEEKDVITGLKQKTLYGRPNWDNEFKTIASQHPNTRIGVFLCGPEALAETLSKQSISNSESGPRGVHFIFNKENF
T1 sequence (P13498 1-195 partner): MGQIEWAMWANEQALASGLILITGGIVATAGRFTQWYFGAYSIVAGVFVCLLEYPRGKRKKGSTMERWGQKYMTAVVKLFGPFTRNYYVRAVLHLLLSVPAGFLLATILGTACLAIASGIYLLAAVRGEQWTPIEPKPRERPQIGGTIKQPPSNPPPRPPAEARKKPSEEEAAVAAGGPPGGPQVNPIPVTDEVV
Experiment: Amplex Red measurement of extracellular hydrogen peroxide (NOX activity) using DMSO-differentiated HL60 cells
Format: cell-based
Conditions: DMSO-differentiated HL60 cells; for Inhibition (%) of NOX activity: test concentration not given
Procedure: The activity of the compounds according to the invention may be tested for their activity in the inhibition or reduction of formation of reactive oxygen species (ROS) from oxygen in cells. The activity of the compounds is tested in the following cell cultures by different techniques such as nitroblue tetrazolium, Amplex Red, Chemiluminescence (Luminol) and 2′,7′-dichlorodihydrofluorescein diacetate (H2DCF-DA) according to the protocols detailed below.
Human acute myeloid leukemia cell line HL-60 was cultured in RPMI 1640 (Invitrogen) supplemented with 10% heat-inactivated calf serum, 2 mM glutamine, 100 U/mL penicillin (Sigma), and 100 μg streptomycin (Sigma) at 37° C. under a humidified atmosphere of 5% CO2. HL60 differentiation to the neutrophil phenotype was triggered by adding Me2SO (final concentration 1.25% v/v for 6 days) to the culture medium.
Extracellular hydrogen peroxide was measured using Amplex UltraRed (Molecular Probes). Cells were trypsinized (1× Trypsin-EDTA), collected by centrifugation, and resuspended in HBSS supplemented with 1% glucose. Cells were seeded into black 96-well plates at a density of 50,000 cells in 200 μl testing buffer (HBSS 1% glucose containing 0.005 U/mL horseradish peroxidase (Roche) and 50 μM Amplex Red in the presence or absence of compounds according to the invention. As a control, DPI was included at a final concentration of 10 μM The plates were placed in the fluorescent Optima Fluorescent plate reader and kept at 37° C. during 20 min. Fluorescence was measured for […] with excitation and emission wavelengths of 544 nm and 590 nm respectively. NOX activities were expressed as % of the activity in control cells. Residual activity of DPI-treated cells was usually <10%.
The Table 2 below summarizes the percentage of inhibition of NOX activity as measured by Amplex Red using DMSO-differentiated HL60 cells as described above:
The Table 3 below summarizes the IC50 of NOX activity as measured by Amplex Red using DMSO-differentiated HL60 cells as described above: […]

| Compound | IC50 | Inhibition (%) of NOX activity |
| --- | --- | --- |
| Cc1c2c(=O)n(Cc3ccc(Cl)cc3)[nH]c2cc(=O)n1Cc1ccccn1 [Compound 2, 2-(4-Chlorobenzyl)-4-Methyl-5-(Pyridin-2-Ylmethyl)-1H-Pyrazolo[4,3-c]Pyridine-3,6(2H,5H)-Dione] | < 5 µM | 61% |
| Cc1c2c(=O)n(CCN3CCOCC3)[nH]c2cc(=O)n1Cc1ccc(Cl)cc1 [Compound 10, 5-(4-Chlorobenzyl)-4-Methyl-2-(2-Morpholin-4-Ylethyl)-1H-Pyrazolo[4,3-c]Pyridine-3,6(2H,5H)-Dione] | < 5 µM | 77% |
| Cc1c2c(=O)n(Cc3ccccc3)[nH]c2cc(=O)n1-c1cccc(OC(F)(F)F)c1 [Compound 3, 2-Benzyl-4-Methyl-5-[3-(Trifluoromethoxy)Phenyl]-1H-Pyrazolo[4,3-c]Pyridine-3,6(2H,5H)-Dione] | < 5 µM | 63% |
| O=c1c2c(COc3ccc(F)cc3)n(Cc3ccc(Cl)cc3)c(=O)cc2[nH]n1CCN1CCOCC1 [Compound 51, 5-(4-chlorobenzyl)-4-[(4-fluorophenoxy)methyl]-2-(2-morpholin-4-ylethyl)-1H-pyrazolo[4,3-c]pyridine-3,6 (2H,5H)-dione] | < 5 µM | 76% |
| COCCn1[nH]c2cc(=O)n(CCc3ccccn3)c(C)c2c1=O [Compound 15, 2-(2-Methoxyethyl)-4-Methyl-5-(2-Pyridin-2-Ylethyl)-1H-Pyrazolo[4,3-c]Pyridine-3,6(2H,5H)-Dione] | < 5 µM | 72% |
| Cc1c2c(=O)n(CCc3ccccc3)[nH]c2cc(=O)n1Cc1ccccc1CN1CCOCC1 [Compound 30, 4-methyl-5-[2-(morpholin-4-ylmethyl)benzyl]-2-(2-phenylethyl)-1H-pyrazolo[4,3-c]pyridine-3,6(2H,5H)-dione] | < 5 µM | 77% |
| Cc1c2c(=O)n(Cc3ccccc3)[nH]c2cc(=O)n1Cc1ccccn1 [Compound 1, 2-Benzyl-4-Methyl-5-(Pyridin-2-Ylmethyl)-1H-Pyrazolo[4,3-c]Pyridine-3,6(2H,5H)-Dione] | < 5 µM | 67% |
| Cc1c2c(=O)n(CC(C)C)[nH]c2cc(=O)n1Cc1cccnc1 [Compound 44, 4-methyl-2-(2-methylpropyl)-5-(pyridin-3-ylmethyl)-1H-pyrazolo[4,3-c]pyridine-3,6 (2H,5H)-dione] | < 5 µM | 78% |
| COCCn1[nH]c2cc(=O)n(CC(=O)N3CCN(Cc4ccccc4)CC3)c(C)c2c1=O [Compound 35, 5-[2-(4-benzylpiperazin-1-yl)-2-oxoethyl]-2-(2-methoxyethyl)-4-methyl-1H-pyrazolo [4,3-c]pyridine-3,6(2H,5H)-dione] | < 5 µM | 72% |
| Cc1c2c(=O)n(C)[nH]c2cc(=O)n1Cc1ccco1 [Compound 6, 5-(Furan-2-Ylmethyl)-2,4-Dimethyl-1H-Pyrazolo[4,3-c]Pyridine-3,6(2H,5H)-Dione] | < 5 µM | 74% |
| Cc1c2c(=O)n(C)[nH]c2cc(=O)n1CCN1CCOCC1 [Compound 16, 2,4-Dimethyl-5-(2-Morpholin-4-Ylethyl)-1H-Pyrazolo[4,3-c]Pyridine-3,6(2H,5H)-Dione] | < 5 µM | 74% |
| Cc1c2c(=O)n(CC(C)C)[nH]c2cc(=O)n1C1CCc2ccccc21 (stereo not shown) [Compound 48, 5-(2,3-dihydro-1H-inden-1-yl)-4-methyl-2-(2-methylpropyl)-1H-pyrazolo[4,3-c] pyridine-3,6(2H,5H)-dione] | < 5 µM | 91% |
| Cn1[nH]c2cc(=O)n(CC3CNC(=O)C3)c(-c3ccc(Cl)cc3)c2c1=O (stereo not shown) [Compound 100, 4-(4-chlorophenyl)-2-methyl-5-[(5-oxopyrrolidin-3-yl)methyl]-1H-pyrazolo[4,3-c] pyridine-3,6(2H,5H)-dione] |  | 90% |
| CCCCc1c2c(=O)n(C)[nH]c2cc(=O)n1Cc1ccc(Cl)cc1 [Compound 8, 4-Butyl-5-(4-Chlorobenzyl)-2-Methyl-1H-Pyrazolo[4,3-c]Pyridine-3,6(2H,5H)-Dione] | < 5 µM | 79% |
| COCCn1c(CCCOc2ccccc2)c2c(=O)n(CCN3CCOCC3)[nH]c2cc1=O [Compound 74, 5-(2-methoxyethyl)-2-(2-morpholin-4-ylethyl)-4-(3-phenoxypropyl)-1H-pyrazolo[4,3-c]pyridine-3,6 (2H,5H)-dione] | < 5 µM | 95% |
| Cc1c2c(=O)n(CCOc3ccc(Cl)cc3)[nH]c2cc(=O)n1Cc1ccccn1 [Compound 24, 2-[2-(4-chlorophenoxy)ethyl] 4-methyl-5-(pyridin-2-ylmethyl)-1H-pyrazolo[4,3-c] pyridine-3,6(2H,5H)-dione] | < 5 µM | 79% |
| Cn1[nH]c2cc(=O)n(CC3CN(Cc4ccccc4)CCO3)c(-c3ccc(Cl)cc3)c2c1=O (stereo not shown) [Compound 97, 5-[(4-benzylmorpholin-2-yl)methyl]-4-(4-chlorophenyl)-2-methyl-1H-pyrazolo[4,3-c] pyridine-3,6(2H,5H)-dione] |  | 89% |
| COCCn1[nH]c2cc(=O)n(-c3cccc(NC(C)=O)c3)c(C)c2c1=O [Compound 19, N-{3-[2-(2-methoxyethyl)-4-methyl-3,6-dioxo-1,2,3,6-tetrahydro-5H-pyrazolo[4,3-c]pyridin-5-yl]phenyl} acetamide] | < 5 µM | 73% |
| COCCn1[nH]c2cc(=O)n(CCOC)c(-c3ccc(Cl)cc3)c2c1=O [Compound 58, 4-(4-chlorophenyl)-2,5-bis(2-methoxyethyl)-1H-pyrazolo[4,3-c]pyridine-3,6 (2H,5H)-dione] | < 5 µM | 95% |
| COCCn1[nH]c2cc(=O)n(CCOC)c(CCCOc3ccccc3)c2c1=O [Compound 94, 2,5-bis(2-methoxyethyl)-4-(3-phenoxypropyl)-1H-pyrazolo[4,3-c]pyridine-3,6 (2H,5H)-dione] | < 5 µM | 90% |
| CC(=O)N1CCC(Cn2c(-c3ccc(Cl)cc3)c3c(=O)n(C)[nH]c3cc2=O)CC1 [Compound 98] |  | 92% |
| Cc1c2c(=O)n(C3CCCCC3)[nH]c2cc(=O)n1Cc1ccccc1CN1CCOCC1 [Compound 13, 2-Cyclohexyl-4-Methyl-5-[2-(Morpholin-4-Ylmethyl)Benzyl]-1H-Pyrazolo[4,3-c]Pyridine-3,6(2H,5H)-Dione] | < 5 µM | 56% |
| COc1cccc(Cn2c(C)c3c(=O)n(CCN4CCOCC4)[nH]c3cc2=O)c1 [Compound 83, 5-(3-methoxybenzyl)-4-methyl-2-(2-morpholin-4-ylethyl)-1H-pyrazolo[4,3-c] pyridine-3,6(2H,5H)-dione] | < 5 µM | 89% |
| COCCn1[nH]c2cc(=O)n(C)c(-c3ccc(Cl)cc3)c2c1=O [Compound 77, 4-(4-chlorophenyl)-2-(2-methoxyethyl)-5-methyl-1H-pyrazolo[4,3-c]pyridine-3,6 (2H,5H)-dione] | < 5 µM | 90% |
| Cc1c2c(=O)n(C)[nH]c2cc(=O)n1Cc1ccccn1 [Compound 4, 2,4-Dimethyl-5-(Pyridin-2-Ylmethyl)-1H-Pyrazolo[4,3-c]Pyridine-3,6(2H,5H)-Dione] | < 5 µM | 65% |
| COCCn1[nH]c2cc(=O)n(CC(=O)N3CCOCC3)c(C)c2c1=O [Compound 20] | < 5 µM | 75% |
